Blank lines part the entries; values can stand above or below the molecule they belong to.
Legend:
[1] = molecular target: T1, Beta-glucosidase (Prunus avium) (UniProt Q43014); test: (§1) Kinetic parameter Km/Kcat against Beta-glucosidase; set-up: unit not given here; conditions: Prunus dulcis
T1 sequence (whole entry): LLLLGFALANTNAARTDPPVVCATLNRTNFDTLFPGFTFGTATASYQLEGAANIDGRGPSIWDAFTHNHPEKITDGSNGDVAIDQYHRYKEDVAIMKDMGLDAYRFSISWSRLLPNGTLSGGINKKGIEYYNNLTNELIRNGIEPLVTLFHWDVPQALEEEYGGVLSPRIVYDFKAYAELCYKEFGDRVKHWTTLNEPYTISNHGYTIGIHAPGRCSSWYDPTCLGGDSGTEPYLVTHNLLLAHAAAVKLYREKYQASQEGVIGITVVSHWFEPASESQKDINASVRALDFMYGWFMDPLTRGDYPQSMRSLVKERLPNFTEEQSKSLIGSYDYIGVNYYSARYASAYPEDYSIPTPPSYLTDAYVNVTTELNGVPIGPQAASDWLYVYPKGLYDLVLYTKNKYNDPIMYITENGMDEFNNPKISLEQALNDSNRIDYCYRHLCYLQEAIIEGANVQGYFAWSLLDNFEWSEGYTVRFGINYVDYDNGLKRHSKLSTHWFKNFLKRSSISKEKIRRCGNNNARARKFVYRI

[2] = Ratio of binding affinity towards E-coli beta - galactosidase to that of km/kcat was determined
[3] = Ratio of binding affinity towards E-coli beta - galactosidase to that of Michaelis-Menten constant against E-coli beta-galactosidase
Beta-galactosidase [4] = molecular target: T2, Beta-galactosidase (Escherichia coli, UniProt Q8VNN2); test: Compound was evaluated for its binding affinity towards E-coli Beta-galactosidase
T2 sequence (Q8VNN2 whole entry): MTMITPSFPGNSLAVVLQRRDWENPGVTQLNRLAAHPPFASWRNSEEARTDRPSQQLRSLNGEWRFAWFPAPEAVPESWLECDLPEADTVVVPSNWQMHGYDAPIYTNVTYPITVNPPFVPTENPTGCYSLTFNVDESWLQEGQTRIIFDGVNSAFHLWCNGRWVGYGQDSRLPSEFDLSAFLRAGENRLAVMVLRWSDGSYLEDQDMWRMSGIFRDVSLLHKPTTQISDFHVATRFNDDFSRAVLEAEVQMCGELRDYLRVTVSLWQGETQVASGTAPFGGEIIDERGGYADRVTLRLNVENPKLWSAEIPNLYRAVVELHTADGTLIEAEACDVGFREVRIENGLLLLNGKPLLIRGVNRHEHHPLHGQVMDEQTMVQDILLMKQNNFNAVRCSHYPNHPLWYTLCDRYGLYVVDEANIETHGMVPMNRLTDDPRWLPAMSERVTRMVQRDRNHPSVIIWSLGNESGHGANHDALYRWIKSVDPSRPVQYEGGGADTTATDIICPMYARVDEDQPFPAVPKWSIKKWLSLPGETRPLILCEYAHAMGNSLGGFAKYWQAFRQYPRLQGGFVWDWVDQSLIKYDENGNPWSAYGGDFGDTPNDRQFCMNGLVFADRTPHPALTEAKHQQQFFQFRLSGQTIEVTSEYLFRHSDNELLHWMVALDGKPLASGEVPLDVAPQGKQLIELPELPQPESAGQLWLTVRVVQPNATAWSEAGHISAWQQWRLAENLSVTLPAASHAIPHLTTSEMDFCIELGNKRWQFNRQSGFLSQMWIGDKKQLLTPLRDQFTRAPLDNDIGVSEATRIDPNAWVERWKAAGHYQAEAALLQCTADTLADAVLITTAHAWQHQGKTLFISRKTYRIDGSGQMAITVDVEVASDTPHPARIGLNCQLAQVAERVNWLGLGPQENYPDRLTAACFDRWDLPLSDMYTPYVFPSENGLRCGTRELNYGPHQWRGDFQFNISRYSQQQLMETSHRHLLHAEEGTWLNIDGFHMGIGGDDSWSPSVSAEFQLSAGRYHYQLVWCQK

[5] = molecular target: T1, Beta-glucosidase (Prunus avium); test: as §1; conditions: Prunus dulcis
Beta-galactosidase [6] = molecular target: T2, Beta-galactosidase; test: Compound was evaluated for its binding affinity towards Beta-galactosidase
[7] = substrate: OC[C@H]1OC[C@@H](O)[C@H]1O; test: (§2) Michaelis-Menten constant against sweet almond Beta-glucosidase
[8] = substrate: O[C@@H]1COC[C@H]1O; test: as §2
[9] = substrate: OC[C@H]1OC[C@@H](O)[C@@H]1O; test: as §2
[10] = substrate: O[C@H]1[C@H](O)COC[C@@H]1O; test: as §2
[11] = substrate: OC[C@H]1OC[C@H](O)[C@@H](O)[C@H]1O; test: as §2
[12] = substrate: OC[C@H]1OC[C@H](O)[C@@H](O)[C@@H]1O; test: as §2

Molecule: C[C@H]1OC[C@H](O)[C@@H](O)[C@H]1O
Km/Kcat [1]: 6.7e-05
Ki/(Km/Kcat) [2]: 630000
Ki/Km [3]: 1.2

Molecule: O[C@H]1[C@H](O)COC[C@@H]1O
Km/Kcat [1]: 1
Ki/(Km/Kcat) [2]: 85
Ki (Beta-galactosidase [4]): 85 mM
Ki/Km [3]: 15.6

Molecule: O[C@@H]1COC[C@H]1O
Km/Kcat [1]: 1
Ki/(Km/Kcat) [2]: 77
Ki (Beta-galactosidase [4]): 77 mM
Ki/Km [3]: 5.1

B1: Beta-glucosidase (Prunus avium), Q43014 (protein)
chain: T1 sequence (whole entry)
Km [7]: 15.7 mM
Km [8]: 3.1 mM
Km [9]: 2.5 mM
Km [10]: 3.1 mM
Km [11]: 15.7 mM
Km [12]: 2.5 mM

Continued, values first:

Ki/(Km/Kcat) [2]: 1e+08
Ki (Beta-galactosidase [4]): 1.9 mM
Ki/Km [3]: 39.6
Molecule: OC[C@H]1OC[C@@H](O)[C@H]1O

Km/Kcat [1]: 0.21
Ki/(Km/Kcat) [2]: 330
Km/Kcat [5]: 0.019
Ki (Beta-galactosidase [4]): 71 mM
Ki/Km [3]: 2.2
Molecule: OC[C@H]1OC[C@H](O)[C@@H](O)[C@@H]1O [1,5-Anhydrosorbitol]

Ki/(Km/Kcat) [2]: 3.9e+08
Ki (Beta-galactosidase [4]): 7.4 mM
Ki/Km [3]: 154
Molecule: OC[C@H]1OC[C@H](O)[C@@H](O)[C@H]1O

Ki/(Km/Kcat) [2]: 240
Ki (Beta-galactosidase [6]): 51 mM
Ki/Km [3]: 1.6
Molecule: OC[C@H]1OC[C@@H](O)[C@@H]1O
